The subject of this experiment is Lawsonia intracellularis. Put plainly: Embedded early vaccination field study: performance of weaned piglets during the rearing period. The experiment is classed as in vivo. Here is the method:
The study was carried out in a unit in North Rhine Westphalia with 160 sows and 600 breeding stalls, producing to a weekly cycle with four weeks' suckling. The piglets are sold on for fattening once they reach about 30 kg.
The unit was chosen because clinical ileitis occurred in the rearing quarters of the unit if the animals were not treated with an antibiotic effective against Lawsonia intracellularis for 10 days from the weaning time onwards. More detailed diagnosis found. Lawsonia intracellularis in the faeces of the clinically sick animals and other diarrhea-causing pathogens were ruled out.
Within the course of the study all the piglets were weighed on removal from the sows and individually marked with progressive numbering using an ear tag. A blood sample was taken from each of 15 piglets in each group of weaned animals on the day of removal from the sow and this blood was tested for antibodies to Lawsonia intracellularis. The weaned piglets were put into pens in groups of 10 animals. Four days after weaning every second group of weaned animals was vaccinated with Enterisol® Ileitis (Boehringer Ingelheim) in accordance with the manufacturer's instructions through the drinking water in their trough. The other groups remained unvaccinated. After 3 days without antibiotics following the ileitis vaccination, the piglets of all the weaned groups were subjected to tylosin therapy (10 mg/kg KGW Tylae G 25, Elanco Animal Health) for 18 days starting from the 8th day after weaning. The unvaccinated weaned piglets were also treated with tylosin in the same dosage for 18 days starting from the 8th day after weaning.
On the day of release from their pens, all the piglets were again weighed individually. In addition, blood samples were taken from 10 piglets in each market batch, and the samples were examined for antibodies to Lawsonia intracellularis using ELISA. All the study groups were subjected to identical care and feed conditions. The study encompasses a total of 891 piglets. The absolute weight gain and daily increase in growth were calculated from the weights on removal from the sows and release from the pens. The rearing period was ascertained using the weaning date and date of sale.

On to `CC[C@H]1OC(=O)C[C@@H](O)[C@H](C)[C@@H](O[C@@H]2O[C@H](C)[C@@H](O[C@H]3C[C@@](C)(O)[C@@H](O)[C@H](C)O3)[C@H](N(C)C)[C@H]2O)[C@@H](CC=O)C[C@@H](C)C(=O)/C=C/C(C)=C/[C@@H]1CO[C@@H]1O[C@H](C)[C@@H](O)[C@@H](OC)[C@H]1OC` [tylosin], for which, under “average, weaning date to date of sale”, the rearing period was 52.9 days. For the same compound, under “difference in maximum rearing period”, the “breeding pens blocked longer than pens containing vaccinated groups” value turned out to be 17 days. For the same compound, the “average gain per day” value (during rearing period) worked out at 404 g per day. Further, the Max. growth period (maximum rearing period) is reported as 96 days. Besides, under “mean daily weight gain during rearing period”, the daily increase was found to be 404 g. Also, the sale weight (mean weight at end of rearing period) worked out at 29.26 kg. The Min. growth period (shortest time after which a piglet was sent on for fattening) stood at 31 days.

The record behind these values is patent US8398970B2, “Method of preventing early Lawsonia intracellularis infections” (priority 2007, dated 2013).
